Laboratory results reported in patent publication US10519145B2, “Pyrazole-oxazolidinone compound for anti-hepatitis B virus” (Shanghai Zhimeng Biopharma Co., Ltd., priority 2016, dated 2019).

What was measured:
HBV strain U95551 (WT) = test: In vitro anti-nucleoside drug-resistant HBV strain activity experiment, transient transfection; type: cell-based; conditions: Hepatitis B virus, transfected HepG2 cells
Protocol: (§1) Compounds were tested for in vitro activity against nucleoside drug-resistant HBV strains using a transient transfection cell model. HepG2 cells (4×10^4 cells/well) that had been transfected with nucleoside drug-resistant HBV strains were seeded into 96-well plates and cultured overnight at 37° C. in 5% CO2. The next day, fresh cultures containing compounds in different concentrations were added into the culture wells. On the fifth day, the old culture medium in the culture wells was aspirated and removed. The fresh medium containing compounds in different concentrations was added. On the eighth day, supernatants in the culture wells were collected and used to extract HBV DNA in the supernatant. qPCR assay was used to detect HBV DNA content in the HepG2 supernatant.

[1] = system: nucleoside drug-resistant HBV strain M204I; test: as above; type: cell-based; conditions: Hepatitis B virus, HepG2
Protocol: as §1

[2] = system: nucleoside drug-resistant HBV strain M204I + S202G + M250V; test: as above; type: cell-based; conditions: Hepatitis B virus, HepG2, 192 h
Protocol: as §1

[3] = system: nucleoside drug-resistant HBV strain L180M + M204V; test: as above; type: cell-based; conditions: Hepatitis B virus, HepG2, 192 h
Protocol: as §1

[4] = system: nucleoside drug-resistant HBV strain M204I + V173L; test: as above; type: cell-based; conditions: Hepatitis B virus, HepG2, 192 h
Protocol: as §1

[5] = system: nucleoside drug-resistant HBV strain M204I + S202G; test: as above; type: cell-based; conditions: Hepatitis B virus, HepG2, 192 h
Protocol: as §1

[6] = system: HBV genotype AB246345 (C); test: Anti-different genotypic HBV strain activity assay in vitro, transient transfection; type: cell-based; conditions: Hepatitis B virus, HepG2
Protocol: (§2) Compounds were tested for in vitro activity against different genotypic HBV strains using a transient transfection cell model. HepG2 cells (4×10^4 cells/well) that had been transfected with different HBV genotypic strains were seeded into 96-well plates and cultured overnight at 37° C. in 5% CO2. The next day, fresh cultures containing compounds in different concentrations were added into the culture wells. On the fifth day, the old culture medium in the culture wells was aspirated and removed. The fresh medium containing compounds in different concentrations was added. On the eighth day, supernatants in the culture wells were collected and used to extract HBV DNA in the supernatant. qPCR assay was used to detected HBV DNA content in the HepG2 supernatant.

[7] = system: HBV genotype AB246346 (C); test: as above; type: cell-based; conditions: Hepatitis B virus, HepG2
Protocol: as §2

[8] = system: HBV genotype JN406371 (B); test: as above; type: cell-based; conditions: Hepatitis B virus, HepG2
Protocol: as §2

HBV genotype U95551 (D) = test: as above; type: cell-based; conditions: Hepatitis B virus, HepG2
Protocol: as §2

[9] = system: HBV genotype AB033554 (B); test: as above; type: cell-based; conditions: Hepatitis B virus, HepG2
Protocol: as §2

[10] = system: HBV genotype HE974371 (A2); test: as above; type: cell-based; conditions: Hepatitis B virus, HepG2
Protocol: as §2

[11] = system: HBV genotype AP007263 (A); test: as above; type: cell-based; conditions: Hepatitis B virus, HepG2
Protocol: as §2

HBV (HepG2.2.15 cells) = test: Anti-HBV activity experiment in vitro (HepG2.2.15, HBV DNA in supernatant, qPCR); type: cell-based; conditions: Hepatitis B virus, HBV DNA in supernatant by qPCR, eighth day
Protocol: Compound Dilution: initial concentrations of all compounds used in the anti-HBV activity experiments in vitro were 1 μM, 3-fold diluted into 8 concentrations; initial concentrations of all compounds used in the cytotoxicity assay were 100 μM, 3-fold diluted into 8 concentrations; and the mother liquor of the compound was diluted with DMSO.
Anti-HBV Activity Experiment In Vitro: HepG2.2.15 cells (4×10^4 cells/well) were seeded in 96-well plates and cultured overnight at 37° C. in 5% CO2. The next day, fresh cultures containing compounds in different concentrations were added into the culture wells. On the fifth day, the old culture medium in the culture wells was aspirated and removed. Fresh medium containing compounds in different concentrations was added. On the eighth day, supernatants in the culture wells were collected and used to extract HBV DNA in the supernatant. qPCR assay was used to detect HBV DNA content in the HepG2.2.15 supernatant.
The data analysis and the percentage of inhibition calculation: the percentage of inhibition was calculated by using the following formula: Inhibition %=[(HBV amount in DMSO control−HBV amount in sample)/HBV amount in DMSO control]×100%.

HBV DNA in mouse plasma = test: Determination of pharmacodynamics in vivo (high pressure tail vein injection of HBV DNA); conditions: 25 mpk, intraperitoneal daily
Protocol: High pressure injection of HBV DNA in tail vein and administration methods:
HBV plasmid DNA solution was high-pressure injected via the tail veins of the mouse: the plasmid DNA was pre-dissolved in physiological saline (10 μg/1.4 ml, 10 μg/1.5 ml) before injection and stored at 4 until its use. The mice were injected with a plasmid DNA solution at a dosage of 8% of the body weight from the tail vein in 5 seconds. If the injection volume is less than or equal to 1.4 ml, 10 μg/1.4 ml of plasmid solution was used; if the injection volume is greater than or equal to 1.5 ml, 10 μg/1.5 ml of plasmid solution was used.
On 1st-7th day, the mice were continuously injected intraperitoneally with the test compound or solvent for 7 days. […] The plasma was divided into two and one was sent to anti-infective groups in the Department of Biology for HBV DNA detection, and the other was ready for use. […]
Quantitative PCR was used to detect the content of HBV DNA in mouse plasma. […]
Quantitative PCR detection of HBV DNA content: In order to rule out possible interference with injected HBV plasmid DNA, two sets of primers and probes were used simultaneously for the assay. […]
HBV DNA content =DNA content detected by HBV primers - DNA content detected by pAAV2 primers

[12] = Pharmacokinetic determination in mice (subcutaneous); type: in vivo; conditions: sc, female BALB/c mouse, single administration, plasma
Protocol: In addition, the pharmacokinetics of the compound of Example 3 (R isomer) in the present application was determined in mice.
Test compounds were subcutaneously administered to female BALB/c mouse once and blood samples were taken at different time points. LC/MS/MS was used to determine the concentration of the test compounds in the […] plasma after administration of the test compounds and calculate relevant parameters.
Animal blood collection time points were: before administration, 5 min, […], 30 min, 1 h, 2 h, 4 h, 8 h and 24 h after administration.
Mass Spectrometer: Triple Quad 5500. Mass Spectrometry Conditions: SRM Detection
Liquid phase conditions: Column: XSELECT CSHTM XP C18 (2.1×50 mm, 2.5 μm); chromatographic mobile phase: mobile phase A: 0.025% FA & 1 mM NH4OAc in water/CAN solution (v:v, 95: 5), mobile phase B: 0.025% FA & 1 mM NH4OAc in ACN/water solution (v:v, 95: 5) (A:B =65%: 35%-10%: 90%); flow rate: 0.6 mL/min; column temperature: 50° C.
According to the drug blood concentration data, the pharmacokinetic parameters of the test compound were calculated using the pharmacokinetic calculation software WinNonlin 5.2 non-compartmental model.

Row | SMILES | EC50 (HBV strain U95551 (WT)) [nM] | EC50 [1] [nM] | EC50 [2] [nM] | EC50 [3] [nM] | EC50 [4] [nM] | EC50 [5] [nM] | EC50 [6] [nM] | EC50 [7] [nM] | EC50 [8] [nM] | EC50 (HBV genotype U95551 (D)) [nM] | EC50 [9] [nM] | EC50 [10] [nM] | EC50 [11] [nM] | other results
1 | Nc1ccn([C@@H]2CS[C@H](CO)O2)c(=O)n1 [Lamivudine, 3′-thio-2′,3′-dideoxycytidine, reference compound] | 94.9 | > 100000 | > 100000 | > 100000 | > 100000 | > 100000 | 97.2 | 128 | 112 | 123 | 156 | 136 | 136 | –
2 | O=C1CO[C@H](c2cn(-c3ccc(Br)cc3)nc2-c2ccc(F)cc2)N1CCc1ccc2[nH]c(=O)[nH]c2c1 [example 3 R isomer, (R)-3-(2-(2-oxo-2,3-dihydro-1H-benzo[d]imidazol-5-yl)ethyl)-2-(1-(4-bromophenyl)-3-(4-fluorophenyl)-1H-pyrazol-4-yl)-oxazolidin-4-one] | 19.1 | 21.2 | 13.6 | 18.9 | 14 | 11.6 | 6.26 | 14.6 | 8.69 | 14.4 | 13.6 | 4.67 | 33.9 | EC50 (HBV (HepG2.2.15 cells)): 7.68 nM; decrease of HBV DNA content in mouse plasma (HBV DNA in mouse plasma; 1st day): 0.55 log; decrease of HBV DNA content in mouse plasma (HBV DNA in mouse plasma; 3rd day): 1.84 log; AUC(0-inf) [12]: 2080 ng·h/mL; Cmax [12]: 643 ng/mL; Tmax [12]: 1.33 h; half-life [12]: 1.19 h; MRT inf ([12]; read-out: MRT0-inf): 2.4 h
